ChEMBL document CHEMBL5113378, “Role of basic aminoalkyl chains in the lead optimization of Indoloquinoline alkaloids” (Eur J Med Chem, 2022)
In brackets after ≈: the same amount, converted by molar mass.

Tests used:
[1] = Selectivity index, ratio of IC50 for rat L6 cells to IC50 for Plasmodium falciparum NF54; assay type: toxicity; details: read-out: Ratio IC50
[2] = Cytotoxicity against rat L6 cells assessed as cell growth inhibition; assay type: toxicity, cell-based
[3] = test system: Plasmodium falciparum; test: Antimalarial activity against Plasmodium falciparum NF54 assessed as parasite growth inhibition; assay type: functional, organism-based
[4] = test system: Hemozoin; test: Inhibition of beta-hematin formation
[5] = test system: Trypanosoma brucei; test: Antitrypanosomal activity against Trypanosoma brucei assessed as parasite growth inhibition; assay type: functional, organism-based
[6] = Selectivity index, ratio of IC50 for rat L6 cells to IC50 for Plasmodium falciparum K1; assay type: toxicity; details: read-out: Ratio IC50
[7] = test system: RPMI-8226; test: Antiproliferative activity against human RPMI-8226 cells assessed as cell growth inhibition; assay type: functional
[8] = test system: K562; test: Antiproliferative activity against human K562 cells assessed as cell growth inhibition; assay type: functional
[9] = test system: MOLT-4; test: Antiproliferative activity against human MOLT-4 cells assessed as cell growth inhibition; assay type: functional
[10] = test system: HL-60; test: Antiproliferative activity against human HL-60 cells assessed as cell growth inhibition; assay type: functional
[11] = test system: SR; test: Antiproliferative activity against human SR cells assessed as cell growth inhibition; assay type: functional
[12] = test system: Hemozoin; test: Inhibition of detergent-mediated beta-hematin formation incubated for 5 to 6 hrs by absorbance based assay
[13] = Selectivity index, ratio of IC50 for rat L6 cells to IC50 for erythrocytic Plasmodium falciparum NF54; assay type: toxicity; details: read-out: Ratio IC50
[14] = biological target: T1, Telomerase reverse transcriptase (Homo sapiens, UniProt O14746); test: Inhibition of telomerase derived from human A2780 cell extract by TRAP assay; assay type: cell-free
[15] = test system: A549; test: Antiproliferative activity against human A549 cells assessed as cell growth inhibition; assay type: functional, cell-based
[16] = test system: DU-145; test: Antiproliferative activity against human DU-145 cells assessed as cell growth inhibition; assay type: functional
[17] = test system: HeLa; test: Antiproliferative activity against human HeLa cells assessed as cell growth inhibition; assay type: functional, cell-based
[18] = test system: MCF7; test: Antiproliferative activity against human MCF7 cells assessed as cell growth inhibition; assay type: functional, cell-based
[19] = biological target: T1, Telomerase reverse transcriptase; test: Inhibition of telomerase derived from human K562 cell extract incubated for 30 mins by TRAP assay; assay type: cell-free
[20] = biological target: DNA topoisomerase 2-beta (Homo sapiens) (UniProt Q02880); test: Inhibition of human topoisomerase-2-beta
[21] = test system: Plasmodium berghei; test: Antimalarial activity against Plasmodium berghei NK65 infected in Webster Swiss mouse assessed as parasite growth inhibition at 50 mg/kg/day, po for 5 days by geimsa dye based microscopy relative to control; assay type: functional; design: scale not given: the % may be the effect or the level left; details: time 5 day
[22] = test system: Plasmodium falciparum; test: Antimalarial activity against Plasmodium falciparum K1 assessed as parasite growth inhibition; assay type: functional, organism-based
[23] = test system: HCT-116; test: Antiproliferative activity against human HCT-116 cells assessed as cell growth inhibition incubated for 96 hrs by MTS assay; assay type: functional, cell-based; details: HCT-116, 96 h
[24] = Selectivity index, ratio of IC50 for rat L6 cells to IC50 for erythrocytic Plasmodium falciparum K1; assay type: toxicity; details: read-out: Ratio IC50

T1 sequence (O14746 whole entry): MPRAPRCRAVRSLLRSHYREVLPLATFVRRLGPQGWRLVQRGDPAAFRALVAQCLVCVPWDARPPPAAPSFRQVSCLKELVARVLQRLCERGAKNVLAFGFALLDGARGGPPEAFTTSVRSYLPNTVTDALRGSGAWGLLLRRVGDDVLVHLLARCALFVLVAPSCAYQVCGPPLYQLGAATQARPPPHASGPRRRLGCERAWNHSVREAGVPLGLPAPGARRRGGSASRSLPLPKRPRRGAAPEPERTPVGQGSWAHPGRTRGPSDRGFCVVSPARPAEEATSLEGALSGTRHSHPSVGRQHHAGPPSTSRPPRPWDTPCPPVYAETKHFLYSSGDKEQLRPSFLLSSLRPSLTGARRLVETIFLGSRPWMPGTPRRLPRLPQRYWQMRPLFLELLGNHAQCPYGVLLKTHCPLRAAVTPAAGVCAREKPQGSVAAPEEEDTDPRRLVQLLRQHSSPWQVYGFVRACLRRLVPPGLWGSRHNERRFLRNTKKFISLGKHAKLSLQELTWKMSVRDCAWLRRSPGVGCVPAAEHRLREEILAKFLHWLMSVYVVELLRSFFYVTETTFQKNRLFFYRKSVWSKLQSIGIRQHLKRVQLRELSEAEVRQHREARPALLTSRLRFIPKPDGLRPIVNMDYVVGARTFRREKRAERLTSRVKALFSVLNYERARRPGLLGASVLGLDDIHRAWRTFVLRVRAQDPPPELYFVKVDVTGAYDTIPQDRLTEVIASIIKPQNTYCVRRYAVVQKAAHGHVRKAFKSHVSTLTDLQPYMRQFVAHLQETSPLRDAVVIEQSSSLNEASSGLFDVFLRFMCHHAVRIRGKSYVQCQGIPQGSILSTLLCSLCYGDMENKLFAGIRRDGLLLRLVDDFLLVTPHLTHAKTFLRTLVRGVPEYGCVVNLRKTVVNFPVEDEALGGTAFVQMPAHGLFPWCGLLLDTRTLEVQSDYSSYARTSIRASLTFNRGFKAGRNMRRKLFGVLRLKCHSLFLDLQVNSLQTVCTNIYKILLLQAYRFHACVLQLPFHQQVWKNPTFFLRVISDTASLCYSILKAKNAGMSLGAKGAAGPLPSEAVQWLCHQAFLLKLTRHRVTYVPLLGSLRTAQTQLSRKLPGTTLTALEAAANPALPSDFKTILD
DNA topoisomerase 2-beta (Homo sapiens), sequence (Q02880 whole entry): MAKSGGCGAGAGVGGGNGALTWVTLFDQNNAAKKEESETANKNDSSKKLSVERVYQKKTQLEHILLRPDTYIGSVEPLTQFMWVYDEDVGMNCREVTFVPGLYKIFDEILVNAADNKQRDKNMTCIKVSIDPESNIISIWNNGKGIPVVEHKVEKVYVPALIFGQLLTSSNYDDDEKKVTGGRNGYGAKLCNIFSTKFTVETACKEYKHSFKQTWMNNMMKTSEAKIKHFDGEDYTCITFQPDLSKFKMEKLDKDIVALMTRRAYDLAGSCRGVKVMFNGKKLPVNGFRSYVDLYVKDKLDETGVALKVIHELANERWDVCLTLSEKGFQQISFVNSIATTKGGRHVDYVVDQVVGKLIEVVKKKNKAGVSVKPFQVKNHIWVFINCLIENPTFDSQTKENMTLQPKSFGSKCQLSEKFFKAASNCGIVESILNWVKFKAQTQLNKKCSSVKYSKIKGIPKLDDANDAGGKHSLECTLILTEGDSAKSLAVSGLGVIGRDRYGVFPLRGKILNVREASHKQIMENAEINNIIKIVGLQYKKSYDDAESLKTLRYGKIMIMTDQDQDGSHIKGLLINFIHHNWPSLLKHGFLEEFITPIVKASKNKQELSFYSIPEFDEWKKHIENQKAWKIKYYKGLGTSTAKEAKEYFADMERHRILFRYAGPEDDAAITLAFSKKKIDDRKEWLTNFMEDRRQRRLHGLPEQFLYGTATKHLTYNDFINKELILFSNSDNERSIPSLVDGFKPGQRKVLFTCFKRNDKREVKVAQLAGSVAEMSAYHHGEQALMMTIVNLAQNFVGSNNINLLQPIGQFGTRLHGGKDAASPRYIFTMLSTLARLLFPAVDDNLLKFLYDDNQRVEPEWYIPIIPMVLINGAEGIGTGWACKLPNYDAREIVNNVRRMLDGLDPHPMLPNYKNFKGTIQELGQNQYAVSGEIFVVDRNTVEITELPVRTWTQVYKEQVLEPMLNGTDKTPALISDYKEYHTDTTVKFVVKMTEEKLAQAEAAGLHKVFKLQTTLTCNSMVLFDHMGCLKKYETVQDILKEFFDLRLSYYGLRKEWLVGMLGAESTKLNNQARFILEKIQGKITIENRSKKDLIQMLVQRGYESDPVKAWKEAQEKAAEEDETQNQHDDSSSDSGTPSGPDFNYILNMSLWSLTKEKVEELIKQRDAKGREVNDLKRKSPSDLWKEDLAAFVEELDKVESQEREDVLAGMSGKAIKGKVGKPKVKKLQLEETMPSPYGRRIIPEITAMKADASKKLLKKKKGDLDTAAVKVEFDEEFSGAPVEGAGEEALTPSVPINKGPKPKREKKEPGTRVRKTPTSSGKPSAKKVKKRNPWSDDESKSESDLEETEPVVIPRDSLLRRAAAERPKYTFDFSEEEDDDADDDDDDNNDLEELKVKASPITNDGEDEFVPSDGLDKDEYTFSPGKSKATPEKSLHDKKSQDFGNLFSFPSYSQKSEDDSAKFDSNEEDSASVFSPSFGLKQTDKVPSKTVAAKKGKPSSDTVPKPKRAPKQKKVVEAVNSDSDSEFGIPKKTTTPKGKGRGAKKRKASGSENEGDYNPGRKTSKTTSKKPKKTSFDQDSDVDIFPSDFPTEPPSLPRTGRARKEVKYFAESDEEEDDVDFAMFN

Q: For Cn1c2nc3ccccc3c-2c(NCC(C)(C)CNC(=O)Nc2ccccc2)c2ccccc21, which selectivity ratio [1] is on record?
A: 82.2

Q: What about the IC50 [2] of the same molecule?
A: 5.65 µM

Q: What about the IC50 [3] of the same molecule?
A: 0.068 µM

Q: What about the IC50 [4] of the same molecule?
A: 26.3 µM

Q: Which selectivity ratio [1] does the source give for Cn1c2nc3ccccc3c-2c(NCCCNC(=S)Nc2ccccc2)c2ccccc21 here?
A: 135

Q: And the IC50 [5]?
A: 0.589 µM

Q: And the selectivity ratio [6]?
A: 11

Q: Which IC50 [2] does the source give for Cn1c2nc3ccccc3c-2c(NCC(C)(C)CNC(=O)Nc2ccccc2)c2cc(Cl)ccc21 here?
A: 1.18 µM

Q: And the IC50 [3]?
A: 0.019 µM

Q: And the IC50 [4]?
A: 10.1 µM

Q: For COc1ccc(Nc2c3c4ccccc4nc-3n(C)c3ccccc23)cc1, which GI50 [7] is on record?
A: 0.14 µM

Q: What about the GI50 [8] of the same molecule?
A: 0.42 µM

Q: And the GI50 [9]?
A: 0.09 µM

Q: And the GI50 [10]?
A: 0.11 µM

Q: And the GI50 [11]?
A: 0.19 µM

Q: For Cn1c2nc3ccccc3c-2c(NCC(C)(C)CNC(=S)Nc2ccccc2)c2ccccc21, which selectivity ratio [1] is on record?
A: 126

Q: And the IC50 [2]?
A: 7.25 µM

Q: What about the IC50 [3] of the same molecule?
A: 0.057 µM

Q: And the IC50 [4]?
A: 19.9 µM

Q: Which selectivity ratio [1] does the source give for Cn1c2nc3ccccc3c-2c(NCC(C)(C)CNC(=S)Nc2ccccc2)c2cc(Cl)ccc21 here?
A: 164

Q: And the IC50 [2]?
A: 3.27 µM

Q: And the IC50 [3]?
A: 0.019 µM

Q: What about the IC50 [4] of the same molecule?
A: 34.1 µM

Q: For C[C@H]1[C@H](OC(=O)CCC(=O)NCCCNc2c3ccccc3nc3c2[nH]c2ccccc23)O[C@@H]2O[C@@]3(C)CC[C@H]4[C@H](C)CC[C@@H]1[C@@]24OO3, which IC50 [12] is on record?
A: 17.1 µM

Q: And the selectivity ratio [13]?
A: 1720

Q: With c1cc2nc3c(cc2cc1CCCN1CCCC1)[nH]c1ccc(CCCN2CCCC2)cc13 as the molecule, how does the IC50 [14] read?
A: 6.3 µM

Q: With COC(=O)c1ccc2c(c1)c(NCCCN)c1c3ccccc3nc-1n2C as the molecule, how does the IC50 [4] read?
A: 104 µM

Q: Which selectivity ratio [1] does the source give for NCCCNc1c2ccccc2nc2c1[nH]c1ccccc12 here?
A: 16

Q: And the IC50 [4]?
A: 16.8 µM

Q: What does the source list for C=CCn1c2ccccc2c2c(C(=O)NC3CCCCC3)c3cc(F)ccc3nc21?
A: GI50 [15]: 7.7 µM; GI50 [16]: 9.4 µM; GI50 [17]: 9.9 µM; GI50 [18]: 11.9 µM

Q: With OCCNc1c2ccccc2nc2c1[nH]c1ccccc12 as the molecule, how does the IC50 [19] read?
A: 2.35 µM

Q: With C[n+]1c2ccccc2cc2[n-]c3ccccc3c21 [CRYPTOLEPINE] as the molecule, how does the MIC [20] read?
A: 0.25 µM (≈ 0.0581 µg/mL)

Q: And the IC50 [15]?
A: 1.05 µM

Q: And the Activity [21]?
A: 43%

Q: What about the IC50 [18] of the same molecule?
A: 0.63 µM

Q: What does the source list for COc1c2c3ccccc3nc-2n(C)c2ccccc12?
A: GI50 [7]: 6.04 µM; GI50 [8]: 11.5 µM; GI50 [9]: 4.7 µM; GI50 [10]: 9.88 µM; GI50 [11]: 7.1 µM

Q: With CCCCNc1c2ccccc2[n+](C)c2c1[nH]c1ccccc12 as the molecule, how does the MIC [20] read?
A: 0.5 µM

Q: What about the IC50 [15] of the same molecule?
A: 0.47 µM

Q: And the IC50 [18]?
A: 5.9 µM

Q: For CCN(CC)Cc1cc2[nH]c3c4ccc(Cl)cc4ncc3c2cc1OC, which IC50 [22] is on record?
A: 0.009 µM

Q: For Cn1c2ccccc2c2c(C(=O)NC3CCCCC3)c3cc(Cl)ccc3nc21, which GI50 [15] is on record?
A: 7.2 µM

Q: What about the GI50 [16] of the same molecule?
A: 20.7 µM

Q: And the GI50 [17]?
A: 10.3 µM

Q: And the GI50 [18]?
A: 9.7 µM

Q: For Cn1c2nc3ccccc3c-2c(NCCCN2C(=O)c3ccccc3SC2c2ccc(Cl)cc2)c2ccccc21 (centres undefined), which selectivity ratio [1] is on record?
A: 361

Q: And the IC50 [5]?
A: 0.868 µM

Q: And the IC50 [3]?
A: 0.0026 µM

Q: With CCN(CC)CCOC(=O)c1ccc2c(c1)c1c(c(=O)c3ccccc3n1CCN(CC)CC)n2CCN(CC)CC as the molecule, how does the IC50 [23] read?
A: 4.5 µM

Q: With CN(C)CCNc1nc2ccccc2c2[nH]c3ccccc3c12 as the molecule, how does the IC50 [22] read?
A: 0.0827 µM

Q: What about the selectivity ratio [1] of the same molecule?
A: 45.8

Q: What about the IC50 [2] of the same molecule?
A: 0.627 µM

Q: What about the IC50 [3] of the same molecule?
A: 0.0137 µM

Q: And the selectivity ratio [6]?
A: 7.6

Q: And the IC50 [4]?
A: 627 µM

Q: With c1cc2nc3c(cc2cc1CCCN1CCCCC1)[nH]c1ccc(CCCN2CCCCC2)cc13 as the molecule, how does the IC50 [14] read?
A: 11.8 µM

Q: For C[C@H]1[C@H](OC(=O)CCC(=O)NCCCNc2nc3ccccc3c3[nH]c4ccccc4c23)O[C@@H]2O[C@@]3(C)CC[C@H]4[C@H](C)CC[C@@H]1[C@@]24OO3, which IC50 [12] is on record?
A: 15.7 µM

Q: And the selectivity ratio [24]?
A: 3280
